Assay results reported in US9173882B2, “Polycyclic heteroaryl substituted triazoles useful as Axl inhibitors” (Rigel Pharmaceuticals, Inc., priority 2008, dated 2015).

biological target: T1, Axl (Homo sapiens, UniProt P30530); experiment: Phospho-Akt in-cell Western assay; type: cell-based; settings: Hela cells, stimulated by Axl-antibody cross-linking, phospho-Akt chemiluminescence; Table 1, formula (Ia)
T1 construct: endogenous in cells; host or cells: HeLa cells
T1 sequence (P30530 26-894): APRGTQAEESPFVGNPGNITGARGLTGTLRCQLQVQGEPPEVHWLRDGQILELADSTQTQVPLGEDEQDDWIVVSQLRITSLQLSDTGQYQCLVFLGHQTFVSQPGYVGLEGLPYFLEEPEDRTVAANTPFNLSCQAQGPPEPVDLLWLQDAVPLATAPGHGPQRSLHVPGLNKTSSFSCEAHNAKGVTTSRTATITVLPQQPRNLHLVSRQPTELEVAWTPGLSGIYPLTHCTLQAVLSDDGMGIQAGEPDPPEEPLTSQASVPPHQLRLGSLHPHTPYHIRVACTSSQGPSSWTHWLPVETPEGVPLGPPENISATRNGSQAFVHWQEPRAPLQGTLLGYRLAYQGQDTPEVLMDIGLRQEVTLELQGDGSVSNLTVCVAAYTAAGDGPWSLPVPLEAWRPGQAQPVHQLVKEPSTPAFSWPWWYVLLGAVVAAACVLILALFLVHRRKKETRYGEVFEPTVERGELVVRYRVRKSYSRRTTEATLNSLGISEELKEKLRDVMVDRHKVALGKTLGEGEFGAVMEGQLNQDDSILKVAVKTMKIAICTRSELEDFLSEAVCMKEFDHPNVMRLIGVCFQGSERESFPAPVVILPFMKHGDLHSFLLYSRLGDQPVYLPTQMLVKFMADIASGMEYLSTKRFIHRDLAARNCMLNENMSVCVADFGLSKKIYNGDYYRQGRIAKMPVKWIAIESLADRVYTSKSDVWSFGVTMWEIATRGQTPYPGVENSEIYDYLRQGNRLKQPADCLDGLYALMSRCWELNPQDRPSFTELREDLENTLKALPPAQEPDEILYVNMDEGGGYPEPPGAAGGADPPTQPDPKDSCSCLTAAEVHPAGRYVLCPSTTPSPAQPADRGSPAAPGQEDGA
Procedure: Phospho-Akt in-Cell Western Assay
The compounds of the invention were tested in the following assay for their ability to inhibit Axl activity.
• Cell culture plate: 96 well assay plate (Corning 3610), white, clear bottom, tissue-culture treated. • Cells: Hela cells. • Starvation medium: For Axl stimulation: 0.5% FCS (fetal calf serum) in DMEM, plus Axl/Fc (extracellular domain of AXL fused to imunoglobulin Fc region) (R&D, 154-AL) 500 ng/mL. • For EGF (epidermal growth factor) stimulation: 0.5% FCS in DMEM (Dulbecco's modified Eagles medium). • Poly-L-Lysine 0.01% solution (the working solution): 10 μg/ml, dilute In PBS (phosphate buffered saline). • Axl antibody cross-linking: • 1st: Mouse anti-Axl (R&D, MAB154). • 2nd: Biotin-SP-conjugated AffiniPure goat anti-mouse IgG (H+L) (Jackson ImmunoResearch #115-065-003). • Fixing buffer: 4% formaldehyde in PBS. • Wash buffer: 0.1% TritonX-100 in PBS. • Quenching buffer: 3% H2O2, 0.1% Azide in wash buffer, Azide and hydrogen peroxide (H2O2) are added fresh. • Blocking buffer: 5% BSA in TBST (tris buffered saline plus 0.1% Tween 20). • Primary antibody: Rabbit anti-human Phospho-Akt antibody (Cell Signaling 9271): 1×250 diluted in blocking buffer. • Secondary antibody: HRP (horse radish peroxidase)-conjugated Goat anti-Rabbit secondary, stock solution: Jackson ImmunoResearch (Goat anti-Rabbit HRP, #111-035-144) 1:1 diluted in glycerol, store at −20° C. The working solution: 1×2000 dilution of stock in blocking buffer. • Chemiluminescent working solution (Pierce, 37030): SuperSignal ELISA (enzyme linked immunosorbant assay) Pico Chemiluminescent substrate. • Crystal Violet solution: Stock: 2.5% Crystal violet in methanol, filtered and kept at ambient temperature. The working solution: dilute the stock 1:20 with PBS immediately before use. • 10% SDS: working solution: 5% SDS (sodium dodecylsulfate), diluted in PBS Methods: Day 1:
A 96 well TC (tissue culture treated) plate was coated with 10 μg/mL poly-L-Lysine at 37° C. for 30 min, washed twice with PBS, and air-dried for 5 minutes before cells were added. Hela cells were seeded at 10,000 cells/well and the cells were starved in 100 μL starvation medium containing Axl/Fc for 24 hrs.
The cells were pre-treated with test compounds by adding 100 μL of 2× test compound to the starvation medium on the cells. The cells were incubated at 37° C. for 1 hr before stimulation.
The cells were stimulated by Axl-antibody cross-linking as follows: A 5× 1st/2nd Axl antibody mixture was made (37.5 μg/mL 1st/100 μg/mL 2nd) in starvation medium and nutated at 4° C. with thorough mixing for 1-2 hours for clustering. The resulting mix was warmed to 37° C. 50 μL of 5× Axl 1st/2nd of antibody cluster was added to the cells and the cells were incubated at 37° C. for 5 min.
After 5 minutes stimulation, the plate was flicked to remove medium and the plate was tapped onto paper towels. Formaldehyde (4.0% in PBS, 100 μL) was added to fix the cells and the cells were incubated at ambient temperature for 20 min without shaking.
The cells were washed with a plate washer buffer to remove the formaldehyde solution. The plate was flicked to removed excess wash buffer and tapped onto paper towels. Quenching buffer (100 μL) was added to each well and the cells were incubated at ambient temperature for 20 minutes without shaking.
The cells were washed with a plate washer buffer to remove the quenching buffer. Blocking buffer (100 μL) was added and the cells were incubated at ambient temperature for at least an hour with gentle shaking.
The cells were washed with a plate washer buffer and diluted primary antibody (50 μL) was added to each well (blocking buffer was added to the negative control wells instead). The plates were incubated overnight at 4° C. with gentle shaking.
The wash buffer was removed, diluted secondary antibody (100 μL) was added, and the cells were incubated at ambient temperature for 1 hour with gentle shaking. […]

IC50 | Compound
< 1000 nM | Nc1nc(Nc2ccc3c(c2)CC[C@@H](N(CC2CC2)CC2CC2)CC3)nn1-c1cc2c(nn1)-c1ccccc1CCC2 [Compound 16, 1-(6,7-dihydro-5H-benzo[6,7]cyclohepta[1,2-c]pyridazin-3-yl)-N^3-((7s)-7-(di(cyclopropylmethyl)amino)-6,7,8,9-tetrahydro-5H-benzo[7]annulene-2-yl)-1H-1,2,4-triazole-3,5-diamine]
< 1000 nM | CC(C)CN[C@H]1CCc2ccc(Nc3nc(N)n(-c4cc5c(nn4)-c4ccccc4CCC5)n3)cc2CC1 [Compound 17, 1-(6,7-dihydro-5H-benzo[6,7]cyclohepta[1,2-c]pyridazin-3-yl)-N^3-((7S)-7-((2-methylpropyl)amino)-6,7,8,9-tetrahydro-5H-benzo[7]annulene-2-yl)-1H-1,2,4-triazole-3,5-diamine]
< 1000 nM | CCCN[C@H]1CCc2ccc(Nc3nc(N)n(-c4cc5c(nn4)-c4ccccc4CCC5)n3)cc2CC1 [Compound 18, 1-(6,7-dihydro-5H-benzo[6,7]cyclohepta[1,2-c]pyridazin-3-yl)-N^3-((7S)-7-((propyl)amino)-6,7,8,9-tetrahydro-5H-benzo[7]annulene-2-yl)-1H-1,2,4-triazole-3,5-diamine]
< 1000 nM | CCCN(CCC)[C@H]1CCc2ccc(Nc3nc(N)n(-c4cc5c(nn4)-c4ccccc4CCC5)n3)cc2CC1 [Compound 19, 1-(6,7-dihydro-5H-benzo[6,7]cyclohepta[1,2-c]pyridazin-3-yl)-N^3-((7S)-7-(dipropylamino)-6,7,8,9-tetrahydro-5H-benzo[7]annulene-2-yl)-1H-1,2,4-triazole-3,5-diamine]
< 1000 nM | CCN(CC)[C@H]1CCc2ccc(Nc3nc(N)n(-c4cc5c(nn4)-c4ccccc4CCC5)n3)cc2CC1 [Compound 20, 1-(6,7-dihydro-5H-benzo[6,7]cyclohepta[1,2-c]pyridazin-3-yl)-N^3-((7S)-7-(diethylamino)-6,7,8,9-tetrahydro-5H-benzo[7]annulene-2-yl)-1H-1,2,4-triazole-3,5-diamine]
< 1000 nM | Nc1nc(Nc2ccc3c(c2)CC[C@@H](NC2CCCCC2)CC3)nn1-c1cc2c(nn1)-c1ccccc1CCC2 [Compound 21, 1-(6,7-dihydro-5H-benzo[6,7]cyclohepta[1,2-c]pyridazin-3-yl)-N^3-((7S)-7-(cyclohexylamino)-6,7,8,9-tetrahydro-5H-benzo[7]annulene-2-yl)-1H-1,2,4-triazole-3,5-diamine]
< 1000 nM | Nc1nc(Nc2ccc3c(c2)CC[C@@H](NC2CCCC2)CC3)nn1-c1cc2c(nn1)-c1ccccc1CCC2 [Compound 22, 1-(6,7-dihydro-5H-benzo[6,7]cyclohepta[1,2-c]pyridazin-3-yl)-N^3-((7S)-7-(cyclopentylamino)-6,7,8,9-tetrahydro-5H-benzo[7]annulene-2-yl)-1H-1,2,4-triazole-3,5-diamine]
< 1000 nM | CC(C)N[C@H]1CCc2ccc(Nc3nc(N)n(-c4cc5c(nn4)-c4ccccc4CCC5)n3)cc2CC1 [Compound 24, 1-(6,7-dihydro-5H-benzo[6,7]cyclohepta[1,2-c]pyridazin-3-yl)-N^3-((7S)-7-(2-propylamino)-6,7,8,9-tetrahydro-5H-benzo[7]annulene-2-yl)-1H-1,2,4-triazole-3,5-diamine]
1000 to 10000 nM | CC(N[C@H]1CCc2ccc(Nc3nc(N)n(-c4cc5c(nn4)-c4ccccc4CCC5)n3)cc2CC1)C(C)(C)C (stereo partly drawn) [Compound 25, 1-(6,7-dihydro-5H-benzo[6,7]cyclohepta[1,2-c]pyridazin-3-yl)-N^3-((7S)-7-((3,3-dimethylbut-2-yl)amino)-6,7,8,9-tetrahydro-5H-benzo[7]annulene-2-yl)-1H-1,2,4-triazole-3,5-diamine]
< 1000 nM | Nc1nc(Nc2ccc3c(c2)CC[C@@H](NCC2CCCCC2)CC3)nn1-c1cc2c(nn1)-c1ccccc1CCC2 [Compound 26, 1-(6,7-dihydro-5H-benzo[6,7]cyclohepta[1,2-c]pyridazin-3-yl)-N^3-((7S)-7-((cyclohexylmethyl)amino)-6,7,8,9-tetrahydro-5H-benzo[7]annulene-2-yl)-1H-1,2,4-triazole-3,5-diamine]
10000 to 20000 nM | Nc1nc(Nc2ccc3c(c2)CC[C@@H](N(CC2CCCCC2)CC2CCCCC2)CC3)nn1-c1cc2c(nn1)-c1ccccc1CCC2 [Compound 27, 1-(6,7-dihydro-5H-benzo[6,7]cyclohepta[1,2-c]pyridazin-3-yl)-N^3-((7S)-7-(di(cyclohexylmethyl)amino)-6,7,8,9-tetrahydro-5H-benzo[7]annulene-2-yl)-1H-1,2,4-triazole-3,5-diamine]
1000 to 10000 nM | Nc1nc(Nc2ccc3c(c2)CC[C@@H](NCc2ccccc2C(=O)O)CC3)nn1-c1cc2c(nn1)-c1ccccc1CCC2 [Compound 29, 1-(6,7-dihydro-5H-benzo[6,7]cyclohepta[1,2-c]pyridazin-3-yl)-N^3-((7S)-7-((2-carboxyphenyl)methyl)amino-6,7,8,9-tetrahydro-5H-benzo[7]annulene-2-yl)-1H-1,2,4-triazole-3,5-diamine]
1000 to 10000 nM | Nc1nc(Nc2ccc3c(c2)CC[C@@H](NCc2cccc(Br)c2)CC3)nn1-c1cc2c(nn1)-c1ccccc1CCC2 [Compound 30, 1-(6,7-dihydro-5H-benzo[6,7]cyclohepta[1,2-c]pyridazin-3-yl)-N^3-((7S)-7-((3-bromophenyl)methyl)amino-6,7,8,9-tetrahydro-5H-benzo[7]annulene-2-yl)-1H-1,2,4-triazole-3,5-diamine]
< 1000 nM | CN(C)[C@H]1CCc2ccc(Nc3nc(N)n(-c4cc5c(nn4)-c4ccccc4CCC5)n3)cc2CC1 [Compound 31, 1-(6,7-dihydro-5H-benzo[6,7]cyclohepta[1,2-c]pyridazin-3-yl)-N^3-((7S)-7-(dimethylamino)-6,7,8,9-tetrahydro-5H-benzo[7]annulene-2-yl)-1H-1,2,4-triazole-3,5-diamine]
< 1000 nM | Nc1nc(Nc2ccc3c(c2)CC[C@@H](NC2CCC2)CC3)nn1-c1cc2c(nn1)-c1ccccc1CCC2 [Compound 32, 1-(6,7-dihydro-5H-benzo[6,7]cyclohepta[1,2-c]pyridazin-3-yl)-N^3-((7S)-7-(cyclobutylamino)-6,7,8,9-tetrahydro-5H-benzo[7]annulene-2-yl)-1H-1,2,4-triazole-3,5-diamine]
